Laboratory results as given in PubChem BioAssay AID1996.
In brackets after ≈: the same amount, converted by molar mass.

Settings: buffer; pH 7.4; 200.0 µM

| SMILES | solubility kinetic |
| --- | --- |
| COc1cccc(CC(=O)OCC(=O)NC2CCCC2)c1 | > 43.7 µg/mL |
| O=C(CNC(=O)C1COc2ccccc2O1)Nc1ccc(F)c(F)c1 (stereo not given) | 18.3 µg/mL (≈ 52.5 µM) |
| COC(=O)c1[nH]c2cc(OC)ccc2c1NC(=O)c1c(F)cccc1F | 4.9 µg/mL (≈ 13.6 µM) |
| COc1ccc(NC(=O)c2cc(C)no2)cc1Cl | 7.5 µg/mL (≈ 28.1 µM) |
| CC(NC(=O)c1ccccc1Br)C1CC2CCC1C2 (stereo not given) | 20.6 µg/mL (≈ 63.9 µM) |
| O=C(NC1CCCCCCC1)c1cccnc1 | 32.5 µg/mL (≈ 140 µM) |
| Cc1cccc(C(=O)Nc2ccc3c(c2)nc(C)n3C)c1 | 5.5 µg/mL (≈ 19.7 µM) |
| COc1cc2[nH]c(=S)n(C3CC3)c(=O)c2cc1OC | 7.6 µg/mL (≈ 27.3 µM) |
| O=C(O)c1ccccc1Nc1ccc(OC(F)F)cc1 | > 41.9 µg/mL |
| Cc1ccc(NC(=O)CN2CCOCC2)cc1C | 35.1 µg/mL (≈ 141 µM) |
| COc1ccccc1OCCNC(=O)Nc1ccc(Br)cc1 | 1.3 µg/mL (≈ 3.56 µM) |
| Cc1ccc(NC(=O)O/N=C/c2ccc(Br)cc2)cc1 | 1.4 µg/mL (≈ 4.2 µM) |
| CN(C)/C=C(\C=O)c1onc(-c2ccccc2Cl)c1C#N | 44.8 µg/mL (≈ 148 µM) |
| CC(=O)Nc1ccc(S(=O)(=O)Nc2ccc(N3CCCCC3)cc2)cc1 | 51.9 µg/mL (≈ 139 µM) |
| COc1cccc(NC(=O)CNCc2ccccc2)c1.Cl | > 46 µg/mL |
| COc1ccccc1Oc1ccc(NC(=O)Cc2ccccc2)cc1 | < 0.7 µg/mL |
| CCOC(=O)c1sc(NC(=O)C2=COCCO2)c(C#N)c1C | 13.5 µg/mL (≈ 41.9 µM) |
| Cc1csc(NC(=O)c2ccncc2)n1 | 17.9 µg/mL (≈ 81.6 µM) |
| Cc1c(Cl)cccc1NC(=S)Nc1ccc(S(=O)(=O)Nc2ncccn2)cc1 | 64.9 µg/mL (≈ 150 µM) |
| Fc1ccc(CNc2ccccn2)cc1 | 24.3 µg/mL (≈ 120 µM) |

| SMILES | solubility kinetic |
| --- | --- |
| CCOc1ccc(N=Cc2c(O)n(Cc3ccccc3)c(=S)[nH]c2=O)cc1 | 0.5 µg/mL (≈ 1.31 µM) |
| CC(/C=C1\SC(=S)N(CC(=O)O)C1=O)=C\c1ccccc1 | > 47.9 µg/mL |
| Cc1ccc(C(=O)N/C(=C\c2cccnc2)C(=O)N2CCCC2)cc1 | > 50.3 µg/mL |
| CC1(C2CC2)NC(=O)N(CC(=O)Nc2ccc(SC(F)F)cc2)C1=O (stereo not given) | > 55.4 µg/mL |
| COc1cccc(CN(C)C(=O)c2sccc2-c2ccccc2)c1OC | 34.6 µg/mL (≈ 94.2 µM) |
| CC(C)CC(=O)N1CCN(Cc2ccc(Cl)cc2)CC1 | 28.4 µg/mL (≈ 96.3 µM) |
| Cc1ccc2c(c1)sc1nc(=O)ccn12 | > 32.4 µg/mL |
| COc1cc(NC(=O)c2ccccc2)c(OC)cc1NC(=O)Cc1ccc(F)cc1 | < 0.4 µg/mL |
| O=C(Cc1ccccc1)Nc1ccc(NC(=O)c2cccs2)cc1 | < 0.4 µg/mL |
| COc1ccc(-n2c(SC)nc3sc4c(c3c2=O)CCN(C)C4)cc1 | 34.8 µg/mL (≈ 93.2 µM) |
| CC(=O)Nc1ccc(SCC(=O)NCC2(N3CCCCC3)CCCCC2)cc1 | > 60.5 µg/mL |
| COC(=O)c1ccc(Nc2nc(-c3ccncc3)nc3ccccc23)cc1 | 1.1 µg/mL (≈ 3.09 µM) |
| COc1ccccc1CN(C)C(=O)COC(=O)c1ccc(Cl)nc1 | > 52.3 µg/mL |
| Cc1cccc(C(=O)N/C(=C\c2ccc(C)o2)C(=O)O)c1 | > 42.8 µg/mL |
| COc1cc(C(=O)NC2CCCc3ccccc32)cc(OC)c1OC (stereo not given) | 5.9 µg/mL (≈ 17.3 µM) |
| Cc1c(C(=O)OCC(=O)NC(C)c2ccccc2)oc2ccccc12 (stereo not given) | 4.4 µg/mL (≈ 13 µM) |
| CC(C)c1ccc(CNc2ncc(Br)cn2)cc1 | 0.4 µg/mL (≈ 1.31 µM) |
| CC(C)C[C@H](N)c1nnc(SCc2ccc(Cl)cc2)o1.Cl | > 52.2 µg/mL |
| O=C(C(Cl)c1ccccc1)N1CCCC1 (stereo not given) | 33.1 µg/mL (≈ 148 µM) |
| O=C1CCCN1CCCNS(=O)(=O)c1ccc(F)cc1F | > 47.8 µg/mL |

| SMILES | solubility kinetic |
| --- | --- |
| CC(=O)N/C(N)=N/c1nc2cc([N+](=O)[O-])ccc2o1 | 3.8 µg/mL (≈ 14.4 µM) |
| O=Cc1cn(CC(O)CN2CCCCC2)c2ccccc12 (stereo not given) | > 43 µg/mL |
| CC1(C)CC(=O)N(c2cc(Cl)ccc2Cl)C(=O)C1 | 14.7 µg/mL (≈ 51.4 µM) |
| Cc1ccc(CNS(=O)(=O)c2c(N)n(C)c(=O)n(C)c2=O)cc1 | 41.3 µg/mL (≈ 122 µM) |
| Cc1nc(NC(=O)c2ccc(Br)o2)ccc1Br | < 0.4 µg/mL |
| O=C(COc1ccc(Br)cc1)N1CCNC1=O | > 44.9 µg/mL |
| Cc1ccnc(NC(=O)c2ccc3[nH]c(=O)c(=O)[nH]c3c2)c1 | 2.2 µg/mL (≈ 7.43 µM) |
| O=C(O)/C=C/c1cccnc1 | > 22.4 µg/mL |
| COc1ccc(NC(=O)NC(C)c2ccccc2)cc1 (stereo not given) | 15.5 µg/mL (≈ 57.3 µM) |
| CCc1ccc(N2C(=O)CC(=O)NC2=O)cc1 | > 34.8 µg/mL |
| CNC(=O)Nc1ccc2nc(C)oc2c1 | > 30.8 µg/mL |
| CNC(=O)/C(C#N)=C/c1cn(CC(=O)OC)c2ccccc12 | 7.8 µg/mL (≈ 26.2 µM) |
| CC(C)(C)c1ccc(-c2nc(C#N)c(NCCCn3ccnc3)o2)cc1 | 1.2 µg/mL (≈ 3.43 µM) |
| CC[N+](CC)(CC)CC.[Cl-] | 20.3 µg/mL |
| O=S(=O)(Nc1ccc(Br)cc1)c1cccc2nonc12 | > 53.1 µg/mL |
| Cc1ccc(S(=O)(=O)c2ncccc2[N+](=O)[O-])cc1 | 40.9 µg/mL (≈ 147 µM) |
| CSc1cccc(NC(=O)C2CC(=O)N(Cc3ccccc3)C2)c1 (stereo not given) | > 51.1 µg/mL |
| CCCC(=O)NC(=S)c1c(C)n(C)n(-c2ccccc2)c1=O | > 47.6 µg/mL |
| NC(=[NH2+])SCC1=CCS(=O)(=O)C1.[Br-] | 39.4 µg/mL |
| Cc1c(C(=O)NCc2ccccn2)oc2c(Cl)cccc12 | > 45.1 µg/mL |
